In patent US10821115B2, “Compounds that inhibit Mcl-1 protein” (priority 2017, dated 2020):
pIC50: −log10 of the molar value. Read-outs that look alike come from different tables or passages of the source.

Key:
[1] = tested on: human multiple myeloma cell line, OPM-2; assay: Cell viability assay (OPM-2 10 FBS), CellTiter-Glo; type: cell-based
How it was run: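 Serially diluted test compounds are incubated 16 h with cells (3000/well) in RPMI 1640 supplemented with 10% FBS. Viability is then measured by luminescence and IC50 calculated by 4-parameter logistic fit.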

[2] = target: recombinant human Mcl-1 (residues 171-327) / Bim interaction (Homo sapiens (Human), UniProt Q07820); assay: biochemical; type: binding; details: read-out: Mcl-1 HTRF IC50
[3] = Homo sapiens, OPM-2, 16 h, read-out: OPM-2 10% FBS IC50 IP, OPM-2 cells, 10% FBS, 16 h, CellTiter-Glo
[4] = TR-FRET, Mcl-1(171-327) / biotin-Bim (51-76)
[5] = 0.1 nM Mcl-1(171-327), 0.05 nM biotin-Bim (51-76)
[6] = Homo sapiens, OPM-2, 16 h, read-out: OPM-2 10% FBS IC50 IP, OPM-2 cells, 10% FBS, 16 h incubation

Sequence of recombinant human Mcl-1 (residues 171-327) / Bim interaction (Q07820 171-327): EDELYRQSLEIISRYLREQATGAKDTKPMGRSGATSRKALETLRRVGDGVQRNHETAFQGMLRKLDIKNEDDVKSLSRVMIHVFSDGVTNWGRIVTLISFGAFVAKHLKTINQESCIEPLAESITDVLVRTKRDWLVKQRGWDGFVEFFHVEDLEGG

Row | SMILES | pIC50 [1, 3] | pIC50 [2, 4] | pIC50 ([1]; read-out: OPM-2 10% FBS IC50 IP, OPM-2 cells, 10% FBS, 16 h incubation) | pIC50 [2, 5] | pIC50 [1, 6]
1 | C[C@@H]1[C@@H](C)C/C=C/C(O)(Cc2nccn2C)[C@@H]2CC[C@H]2CN2C[C@@]3(CCCc4cc(Cl)ccc43)COc3ccc(cc32)C(=O)NS1(=O)=O (stereo in doubt) [Example 100523, (1S,3′R,6′R,7′S,8′E,11′S,12′R)-6-chloro-7′-hydroxy-11′,12′-dimethyl-7′-((1-methyl-1H-imidazol-2-yl)methyl)-3,4-dihydro-2H,15′H-spiro[naphthalene-1,22′-[20]oxa[13]thia[1,14]diazatetracyclo [14.7.2.0~3,6~.0~19,24~]pentacosa[8,16,18,24]tetraen]-15′-one 13′,13′-dioxide] | 6.21 | 9.09 | – | – | –
2 | C[C@@H]1[C@@H](C)C/C=C/C(O)(Cc2nccn2C)[C@@H]2CC[C@H]2CN2C[C@@]3(CCCc4cc(Cl)ccc43)COc3ccc(cc32)C(=O)NS1(=O)=O (stereo in doubt) [Example 100524, (1S,3′R,6′R,7′R,8′E,11′S,12′R)-6-chloro-7′-hydroxy-11′,12′-dimethyl-7′-((1-methyl-1H-imidazol-2-yl)methyl)-3,4-dihydro-2H,15′H-spiro[naphthalene-1,22′-[20]oxa[13]thia[1,14]diazatetracyclo [14.7.2.0~3,6~.0~19,24~]pentacosa[8,16,18,24]tetraen]-15′-one 13′,13′-dioxide] | 6.07 | 9.00 | – | – | –
3 | CO[C@@]1(CC2=N[C@H](C)C(=O)O2)/C=C/C[C@H](C)[C@@H](C)S(=O)(=O)NC(=O)c2ccc3c(c2)N(C[C@@H]2CC[C@H]21)C[C@@]1(CCCc2cc(Cl)ccc21)CO3 (stereo in doubt) [Example 100531] | 6.76 | 10.08 | – | – | –
4 | C[C@@H]1[C@@H](C)C/C=C/[C@](O)(c2cnccc2F)[C@@H]2CC[C@H]2CN2C[C@@]3(CCCc4cc(Cl)ccc43)COc3ccc(cc32)C(=O)NS1(=O)=O (stereo in doubt) [Example 100537] | 6.59 | 9.94 | – | – | –
5 | CO[C@]1(CN2CCN(C(C)C)[C@H](C)C2)/C=C/C[C@H](C)[C@@H](C)S(=O)(=O)NC(=O)c2ccc3c(c2)N(C[C@@H]2CC[C@H]21)C[C@@]1(CCCc2cc(Cl)ccc21)CO3 [Example 8, (1 S,3′R,6′R,7′R,8′E, 11′S,12′R)-6-CHLORO-7′-METHOXY-11′,12′-DIMETHYL-7′-(((3R)-3-METHYL-4-(1-METHYLETHYL)-1-PIPERAZINYL)METHYL)-3,4-DIHYDRO-2H, 15′H-SPIRO [NAPHTHALENE-1,22′-[20]OXA[13]THIA[1,14]DIAZATETRACYCLO[14.7.2.0-3,6˜.0˜19,24˜]PENT ACOSA[8,16,18,24]TETRAEN]-15′-ONE 13′,13′-DIOXIDE] | – | – | 7.60 | 10.28 | –
6 | COCC[C@@H]1[C@@H](C)C/C=C/[C@](CN2CCN3CCCC[C@@H]3C2)(OC)[C@@H]2CC[C@H]2CN2C[C@@]3(CCCc4cc(Cl)ccc43)COc3ccc(nc32)C(=O)NS1(=O)=O [Example 21, (1S,3′R,6′R,7′S,8′E,11′S,12′R)-6-chloro-7′-methoxy-12′-(2-methoxyethyl)-11′-methyl-7′-((9aR)-octahydro-2H-pyrido[1,2-a]pyrazin-2-ylmethyl)-3,4-dihydro-2H, 15′H-spiro[naphthalene-1,22′-[20]oxa[13]thia[1,14,25]triazatetracyclo[14.7.2.0˜3,6˜.0˜19,24˜]pentacosa[8,16,18,24]tetraen]-15′-one 13′,13′-dioxide] | – | – | – | 9.81 | 7.33
7 | COCC[C@H]1[C@@H](C)C/C=C/[C@](CN2CCN3CCOC[C@@H]3C2)(OC)[C@@H]2CC[C@H]2CN2C[C@@]3(CCCc4cc(Cl)ccc43)COc3ccc(nc32)C(=O)NS1(=O)=O [Example 22, (1S,3′R,6′R,7′S,8′E,11′S,12′S)-6-chloro-7′-((9aS)-hexahydropyrazino[2,1-c][1,4]oxazin-8(1H)-ylmethyl)-7′-methoxy-12′-(2-methoxyethyl)-11′-methyl-3,4-dihydro-2H,15′H-spiro[naphthalene-1,22′-[20]oxa[13]thia[1,14,25]triazatetracyclo [14.7.2.0~3,6~.0~19,24~]pentacosa[8,16,18,24]tetraen]-15′-one 13′,13′-dioxide] | – | – | – | 9.17 | 5.65
8 | COCC[C@@H]1[C@@H](C)C/C=C/[C@](CN2CCN(C3COC3)CC2)(OC)[C@@H]2CC[C@H]2CN2C[C@@]3(CCCc4cc(Cl)ccc43)COc3ccc(nc32)C(=O)NS1(=O)=O [Example 23, (1S,3′R,6′R,7′S,8′E,11′S,12′R)-6-chloro-7′-methoxy-12′-(2-methoxyethyl)-11′-methyl-7′-((4-(3-oxetanyl)-1-piperazinyl)methyl)-3,4-dihydro-2H,15′H-spiro[naphthalene-1,22′-[20]oxa[13]thia[1,14,25]triazatetracyclo [14.7.2.0~3,6~.0~19,24~]pentacosa[8,16,18,24]tetraen]-15′-one 13′,13′-dioxide] | – | – | – | 10.15 | 7.62
9 | COCC[C@@H]1[C@@H](C)C/C=C/[C@](CN2CCN(C(C)C)CC2)(OC)[C@@H]2CC[C@H]2CN2C[C@@]3(CCCc4cc(Cl)ccc43)COc3ccc(nc32)C(=O)NS1(=O)=O [Example 24, (1S,3′R,6′R,7′S,8′E,11′S,12′R)-6-chloro-7′-methoxy-12′-(2-methoxyethyl)-11′-methyl-7′-((4-(1-methylethyl)-1-piperazinyl)methyl)-3,4-dihydro-2H,15′H-spiro[naphthalene-1,22′-[20]oxa[13]thia[1,14,25]triazatetracyclo [14.7.2.0~3,6~.0~19,24~]pentacosa[8,16,18,24]tetraen]-15′-one 13′,13′-dioxide] | – | – | – | 10.07 | 7.46
10 | COCC[C@@H]1[C@@H](C)C/C=C/[C@](CN2CCN(C(COC)COC)CC2)(OC)[C@@H]2CC[C@H]2CN2C[C@@]3(CCCc4cc(Cl)ccc43)COc3ccc(nc32)C(=O)NS1(=O)=O [Example 25, (1S,3′R,6′R,7′S,8′E,11′S,12′R)-6-chloro-7′-methoxy-12′-(2-methoxyethyl)-7′-((4-(2-methoxy-1-(methoxymethyl)ethyl)-1-piperazinyl)methyl)-11′-methyl-3,4-dihydro-2H,15′H-spiro[naphthalene-1,22′-[20]oxa[13]thia[1,14,25]triazatetracyclo [14.7.2.0~3,6~.0~19,24~]pentacosa[8,16,18,24]tetraen]-15′-one 13′,13′-dioxide] | – | – | – | 9.95 | 7.39
11 | COCC[C@@H]1[C@@H](C)C/C=C/[C@](CN2CCN(Cc3noc(C)n3)CC2)(OC)[C@@H]2CC[C@H]2CN2C[C@@]3(CCCc4cc(Cl)ccc43)COc3ccc(nc32)C(=O)NS1(=O)=O [Example 26, (1S,3′R,6′R,7′S,8′E,11′S,12′R)-6-chloro-7′-methoxy-12′-(2-methoxyethyl)-11′-methyl-7′-((4-((5-methyl-1,2,4-oxadiazol-3-yl)methyl)-1-piperazinyl)methyl)-3,4-dihydro-2H,15′H-spiro[naphthalene-1,22′-[20]oxa[13]thia[1,14,25]triazatetracyclo [14.7.2.0~3,6~.0~19,24~]pentacosa[8,16,18,24]tetraen]-15′-one 13′,13′-dioxide] | – | – | – | 10.10 | 7.49
